According to US20230365592A1 (Agios Pharmaceuticals, Inc., priority 2022, published 2023):
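Note: after compound treatment, cells received sepiapterin plus isotope-labelled Phenylalanine for 4 hours, then labelled Tyrosine in the medium was quantified, 10-point 2-fold dilution series run in duplicate.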

The compounds below were run against T1, human PAH with the R408W mutation (Homo sapiens, UniProt P00439, R408W) (assay: Cell Based Phenylalanine Flux Assay). Conditions: A375 cells expressing R408W PAH; 24 hrs with compound, then 20 µM sepiapterin and 800 µM 13C9,15N-Phenylalanine for 4 hours; 13C-Tyrosine by LC-MS; average where tested multiple times; read-out: AC50.
T1 construct: expressed in transfected cells
T1 sequence (P00439 1-452 R408W): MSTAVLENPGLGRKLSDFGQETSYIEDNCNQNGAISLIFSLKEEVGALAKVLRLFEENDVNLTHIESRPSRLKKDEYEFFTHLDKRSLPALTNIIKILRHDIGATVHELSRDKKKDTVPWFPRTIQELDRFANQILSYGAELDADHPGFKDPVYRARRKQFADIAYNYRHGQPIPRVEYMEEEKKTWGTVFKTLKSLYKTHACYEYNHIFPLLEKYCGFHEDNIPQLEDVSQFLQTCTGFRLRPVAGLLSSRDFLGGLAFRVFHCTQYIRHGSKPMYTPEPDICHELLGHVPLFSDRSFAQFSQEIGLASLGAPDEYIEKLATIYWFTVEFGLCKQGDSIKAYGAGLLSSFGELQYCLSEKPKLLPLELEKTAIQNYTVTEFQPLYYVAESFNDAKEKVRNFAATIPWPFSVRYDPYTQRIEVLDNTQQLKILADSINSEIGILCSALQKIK
With `CCn1cnnc1C(=O)N1CCc2[nH]cnc2C1c1cc2ccccn2n1` (stereo not drawn) the AC50 was 1 to 5 µM.

Same assay, conditions: A375 cells expressing human PAH R408W; 24 hrs compound incubation; 13C-Tyrosine by LC-MS; average where tested multiple times; read-out: AC50
Work on `Cc1ncccc1-c1nnc(N2CCc3[nH]cnc3[C@H]2c2cc3c(Cl)cccn3n2)o1` [Example 2236, (S)-2-(4-(4-chloropyrazolo[1,5-a]pyridin-2-yl)-1,4,6,7-tetrahydro-5H-imidazo[4,5-c]pyridin-5-yl)-5-(2-methylpyridin-3-yl)-1,3,4-oxadiazole] yielded an AC50 of under 0.5 µM. For `O=C(c1nnc(C2CCC2)o1)N1CCc2[nH]cnc2[C@H]1c1cc2cccc(C(F)(F)F)n2n1` [Example 2430, (S)-(5-cyclobutyl-1,3,4-oxadiazol-2-yl)(4-(7-(trifluoromethyl)pyrazolo[1,5-a]pyridin-2-yl)-6,7-dihydro-1H-imidazo[4,5-c]pyridin-5(4H)-yl)methanone], the AC50 was 1 to 5 µM. `Cc1c(-c2ncc(C(=O)N3CCc4[nH]cnc4[C@H]3c3cc4c(C(F)F)cccn4n3)o2)cnn1C` [Example 2068, (S)-(4-(4-(difluoromethyl)pyrazolo[1,5-a]pyridin-2-yl)-1,4,6,7-tetrahydro-5H-imidazo[4,5-c]pyridin-5-yl)(2-(1,5-dimethyl-1H-pyrazol-4-yl)oxazol-5-yl)methanone] gave an AC50 of 0.5 to 1 µM. With `Cc1cccnc1-c1nnc(N2CCc3[nH]cnc3[C@@H]2c2cc3ccccn3n2)o1` [Example 2266, (R)-2-(3-methylpyridin-2-yl)-5-(4-(pyrazolo[1,5-a]pyridin-2-yl)-1,4,6,7-tetrahydro-5H-imidazo[4,5-c]pyridin-5-yl)-1,3,4-oxadiazole] the AC50 was over 5 µM.

Same assay, conditions: A375 cells expressing human R408W PAH; 24 hrs compound incubation; 13C-Tyrosine by LC-MS; average where tested multiple times; read-out: AC50
`O=C(c1nnc(-c2ccc(C(F)(F)F)cc2)o1)N1CCc2[nH]cnc2[C@@H]1c1cc2ccccn2n1` [Example 643, (R)-(4-(pyrazolo[1,5-a]pyridin-2-yl)-6,7-dihydro-1H-imidazo[4,5-c]pyridin-5(4H)-yl)(5-(4-(trifluoromethyl)phenyl)-1,3,4-oxadiazol-2-yl)methanone] showed an AC50 of over 5 µM. `O=C(c1nnc(-c2ncccn2)o1)N1CCc2[nH]cnc2[C@H]1c1cc2cccc(Cl)n2n1` [Example 1393, (S)-(4-(7-chloropyrazolo[1,5-a]pyridin-2-yl)-6,7-dihydro-1H-imidazo[4,5-c]pyridin-5(4H)-yl)(5-(pyrimidin-2-yl)-1,3,4-oxadiazol-2-yl)methanone] showed an AC50 of under 0.5 µM. `Cc1ccc2cc([C@H]3c4nc[nH]c4CCN3C(=O)c3nnc(C(C)(C)C)o3)nn2c1` [Example 1111, (R)-(5-(tert-butyl)-1,3,4-oxadiazol-2-yl)(4-(6-methylpyrazolo[1,5-a]pyridin-2-yl)-6,7-dihydro-1H-imidazo[4,5-c]pyridin-5(4H)-yl)methanone] showed an AC50 of over 5 µM. Work on `Cc1cccc(-c2nnc(C(=O)N3CCc4[nH]cnc4[C@@H]3c3cc4c(C(F)F)cccn4n3)o2)n1` [Example 1464, (R)-(4-(4-(difluoromethyl)pyrazolo[1,5-a]pyridin-2-yl)-6,7-dihydro-1H-imidazo[4,5-c]pyridin-5(4H)-yl)(5-(6-methylpyridin-2-yl)-1,3,4-oxadiazol-2-yl)methanone] yielded an AC50 of 1 to 5 µM. `CC(C)(F)c1nc(C(F)F)c(C(=O)N2CCc3[nH]cnc3[C@H]2c2cc3ccccn3n2)o1` [Example 1255, (S)-(4-(difluoromethyl)-2-(2-fluoropropan-2-yl)oxazol-5-yl)(4-(pyrazolo[1,5-a]pyridin-2-yl)-6,7-dihydro-1H-imidazo[4,5-c]pyridin-5(4H)-yl)methanone] gave an AC50 of under 0.5 µM. Compound `Cc1cccn2nc([C@@H]3c4nc[nH]c4CCN3C(=O)c3nnc(C4CC4)o3)cc12` [Example 924, (S)-(5-cyclopropyl-1,3,4-oxadiazol-2-yl)(4-(4-methylpyrazolo[1,5-a]pyridin-2-yl)-6,7-dihydro-1H-imidazo[4,5-c]pyridin-5(4H)-yl)methanone] has an AC50 of under 0.5 µM. `COc1cccn2nc([C@@H]3c4nc[nH]c4CCN3C(=O)c3ccnn3-c3ccccn3)cc12` [Example 898, (S)-(4-(4-methoxypyrazolo[1,5-a]pyridin-2-yl)-6,7-dihydro-1H-imidazo[4,5-c]pyridin-5(4H)-yl)(1-(pyridin-2-yl)-1H-pyrazol-5-yl)methanone] showed an AC50 of under 0.5 µM.
